pIC50: −log10 of the molar value. Converted amounts (≈) assume the structure as drawn. Read-outs that look alike come from different tables or passages of the source. Square brackets hold non-standard residues; d marks the D form. Ends that are not written are not given here. Peptide text beside a SMILES is read from it. * marks the point of attachment. Gu = N-terminal guanidylation, N=C(N)*

Consider six compounds from article PMC12382740, “In Vitro and In Vivo Characterization of Novel Cathelicidin-Based Peptides with Antimicrobial Activity Against Pseudomonas aeruginosa” (Antibiotics, 2025).

One series deals with erythrocytes. Details: method as in PMID 26114809. The settings on record: at 64 mg/L ref 58; cited from earlier work.
The test system of series [1] is HeLa cells. Details: method as in PMID 26114809. The settings on record: read-out: IC50 against HeLa cells; cited from earlier work.
The subject of series [2] is Colistin Susceptible P. aeruginosa. The class given is cell-based, Pseudomonas aeruginosa. The settings on record: Colistin Susceptible. As to the method: (§1) The antimicrobial activity of the peptides was tested against a collection of P. aeruginosa, selected by their resistance or susceptibility to colistin and/or classified as MDR strains. The origin of the strains was either clinical, relevant to the current clinical situation, or commercial strains belonging to the American Type Culture Collection (ATCC, Manassas, VA, USA), which complemented the collection for comparison and control. For the initial activity screening of the 17 peptides, we tested them against P. aeruginosa ATCC strains 1211007 and 1211101. Both strains are multidrug-resistant; however, the key difference is that strain 1211007 is susceptible to colistin, whereas strain 1211101 is resistant to colistin.
(§2) Minimum Inhibitory Concentration (MIC) of the antimicrobial agents against bacterial strains was obtained through broth microdilution assays following a protocol based on the Clinical & Laboratory Standards Institute’s guidelines. Modifications regarding microplate material and broth were included when testing the peptides’ activity and are detailed below. Colistin MICs were obtained following recommendations of the joint CLSI-EUCAST Polymyxin Breakpoints Working Group using Cation Adjusted Mueller-Hinton Broth (90922, 500 g Sigma-Aldrich®, St. Louis, MO, USA), and strains Escherichia coli 13846 (mcr-1 positive) and P. aeruginosa ATCC 27853 were used as quality controls in all assays. Bacteria were cultured in Columbia Agar plates (Columbia Agar with 5% Sheep Blood 90 mm Stacker plates, Becton Dickinson, Franklin Lakes, NJ, USA) and incubated overnight at 37 °C. Polypropylene round-bottomed 96-well plates (-96-well Polypropylene Storage Microplates, 267334, Thermo Fischer Scientific, Waltham, MA, USA) were used to prevent peptide binding to plate walls. AST broth (BD Phoenix™ AST broth, 8 mL, 246003, Becton Dickinson, Franklin Lakes, NJ, USA) was used when testing the peptides’ activity. […] Three biological and technical replicates were performed per strain.

Series [3] concerns Colistin-Resistant P. aeruginosa. The class given is cell-based, Pseudomonas aeruginosa. The settings on record: Colistin-Resistant. As to the method: as §1, §2
For series [4], the system named is P. aeruginosa Strain ATCC 121110. The class given is cell-based, Pseudomonas aeruginosa. The settings on record: ATCC 121110. As to the method:
as §1, §2

Series [5] relates to P. aeruginosa strain panel. The class given is cell-based, Pseudomonas aeruginosa. The settings on record: strain panel. As to the method: as §1, §2
The subject of a further series is human erythrocytes. In words: Hemolysis assay. It is filed as cell-based. The settings on record: red cells of human, 4 h. As to the method:
Commercially available human blood (IWB1K2E10ML, Innovative Research Inc., Novi, MI, USA) was used to produce a 50% haematocrit solution by mixing at 1:1 with PBS 1× (P5493, 1 L, Sigma, St. Louis, MO, USA). Three consecutive PBS 1× washes plus centrifugation at 2600 rpm for 10 min steps were performed. Finally, a 2% erythrocyte solution was prepared in PBS 1× and chilled on ice until used. Polypropylene plates were filled with 50 µL PBS 1× per well for the samples and 50 µL 2% Triton X-100 (TX-100, 9002-93-1, 100 mL, Sigma, St. Louis, MO, USA) for the hemolysis controls. A solution at 4× final concentration of the assay of each peptide was prepared in PBS and 50 µL were added to the first column of each plate, followed by serial dilutions in the microplate. Then, 50 µL of the 2% erythrocyte solution was added to each plate. […] controls consisted in a 1:1 mix of PBS 1× and erythrocytes at 2%. Plates were incubated at 37 °C for 4 h and then centrifuged at 1500 rpm for 5 min. Eighty µL were extracted from the supernatant of each well carefully and transferred to a polystyrene flat bottom plate for reading and read at 450 nm in an Epoch microplate spectrophotometer (Epoch™, BioTek, Winooski, VT, USA).
The therapeutic index is a widely accepted parameter to represent the specificity of antimicrobial peptides for prokaryotic versus eukaryotic cells. It is calculated by the ratio of HC50 (hemolytic activity) and MIC (antimicrobial activity); thus, larger values of therapeutic index indicate greater specificity for prokaryotic cells.

For the next series, the system named is A549 cells. The class given is cell-based, human. The settings on record: 24 h. The protocol:
(§3) Cell viability assays were performed against HeLa and A549 cells. Cells were seeded in Corning 96-well microplates at 2 × 10^3 cells/well and 5 × 10^3 cells/well and incubated for 24 h at 37 °C. Then, cells were treated with peptides dissolved in Dulbecco’s Modified Eagle’s Medium for 24 h; peptide concentration range 0.1–100 µM. The peptide solution was then removed, and fresh medium was added to the cells. Finally, 50 µL of activated-XTT solution was added and incubated for 4 h at 37 °C. A PowerWave X reader (BioTek, Winooski, VT, USA) was used to measure absorbance at 450 nm. Cell viability was calculated through the ratio of the absorbance of peptide-treated cells over the absorbance of untreated cells. Triplicates were run for each experiment.

Series [6] relates to HeLa cells. The class given is cell-based, human. The settings on record: 24 h. The protocol:
as §3

Series [7] can be described thus: In vivo toxicity study, topical. Details: species or system BALB/C mice. The settings on record: for mice final weight (median ± SD): after 7 days of observation after the treatment; for dermal responses and body weight loss / indicative signs of acute toxicity: healthy female BALB/C mice; for dermal responses and body weight loss: during the application; for indicative signs of acute toxicity: topical, efficacy dosage, 7 days observation. The protocol: Immunocompetent female BALB/C mice weighing 20 g (7–9 weeks old) were used (Charles River laboratories, St-Germain-Nuelles, France). Animals were murine pathogen-free and were assessed for genetic authenticity. The study followed the Guide for the Care and Use of Laboratory Animals. The experiments followed the 2010/63/EU directive on the protection of animals used for scientific research. Experiments were approved by the Committee on the Ethics of Animal Experiments of the Virgen del Rocío University Hospital and the Andalusian Ministry of Agricultura, Pesca, Agua y Desarrollo Rural, Junta de Andalucía, Sevilla, Spain (11-09-15-322).
CAP-18 and D-CAP-18 peptides were evaluated in five healthy female BALB/C mice at the dosage and regimen schedule to be used in the efficacy studies. The following indicative signs of acute toxicity were assessed during seven days: reduced water (dehydration)/food intake, isolation, self-mutilation, tremors/spasms, dyspnea, physical activity (increased/reduced), chromo-dacryorrhea, dermal responses, including erythema/oedema/redness/discoloration/necrosis), muscle stiffness, piloerection, teeth grinding, and weight loss.

For series [8], the system named is P. aeruginosa Strain 121007. It is filed as cell-based, Pseudomonas aeruginosa. The settings on record: Strain 121007. As to the method:
as §1, §2

Consider mastoparan, for which the hemolysis with erythrocytes is listed as 6.6%. For the same compound, in the series on HeLa cells [1], the pIC50 was 4.49.

On to “Gu-INLKALAALAKKIL-NH2 (SMILES CC[C@H](C)[C@H](NC(=N)N)C(=O)N[C@@H](CC(N)=O)C(=O)N[C@@H](CC(C)C)C(=O)N[C@@H](CCCCN)C(=O)N[C@@H](C)C(=O)N[C@@H](CC(C)C)C(=O)N[C@@H](C)C(=O)N[C@@H](C)C(=O)N[C@@H](CC(C)C)C(=O)N[C@@H](C)C(=O)N[C@@H](CCCCN)C(=O)N[C@@H](CCCCN)C(=O)N[C@H](C(=O)N[C@@H](CC(C)C)C(N)=O)[C@@H](C)CC) [guanidylated mastoparan analog]”, for which, in the series on HeLa cells [1], the pIC50 is 4.89.

For the compound H-inlkalaalakkil-NH2, the pIC50 in the series on HeLa cells [1] is 5.00.

For “GLRKRLRKFRNKIKEKLKKIGQKIQGLLPKLAPRTDY [CAP-18]”, the MIC is 8 µg/mL in series [2], 4 µg/mL in series [3] and < 0.125 µg/mL in series [4]. The same compound yielded an MIC50 in series [5] of 0.5 µg/mL. In [5], this compound registered an MIC90 of 4 µg/mL. In addition, the pIC50 with human erythrocytes is 4.45; in the series on A549 cells, 6.06; in the series on HeLa cells [6] it was 5.04. Besides, in series [7], the “mice final weight (median ± SD)” value is given as 19.1 ± 0.55 grams. Also, in [7], the “dermal responses and body weight loss” value was “no dermal responses, including erythema/oedema, nor body weight loss were observed”. For the same compound, in series [7], the “indicative signs of acute toxicity” value is “None of the 11 indicative signs of acute toxicity were observed”.

For `CC[C@@H](C)[C@@H](NC(=O)[C@@H](CCCCN)NC(=O)[C@@H](CCCCN)NC(=O)[C@@H](CC(C)C)NC(=O)[C@@H](CCCCN)NC(=O)[C@@H](CCC(=O)O)NC(=O)[C@@H](CCCCN)NC(=O)[C@H](NC(=O)[C@@H](CCCCN)NC(=O)[C@@H](CC(N)=O)NC(=O)[C@@H](CCCNC(=N)N)NC(=O)[C@@H](Cc1ccccc1)NC(=O)[C@@H](CCCCN)NC(=O)[C@@H](CCCNC(=N)N)NC(=O)[C@@H](CC(C)C)NC(=O)[C@@H](CCCNC(=N)N)NC(=O)[C@@H](CCCCN)NC(=O)[C@@H](CCCNC(=N)N)NC(=O)[C@@H](CC(C)C)NC(=O)CN)[C@H](C)CC)C(=O)NCC(=O)N[C@H](CCC(N)=O)C(=O)N[C@H](CCCCN)C(=O)N[C@@H](C(=O)N[C@H](CCC(N)=O)C(=O)NCC(=O)N[C@H](CC(C)C)C(=O)N[C@H](CC(C)C)C(=O)N1CCC[C@@H]1C(=O)N[C@H](CCCCN)C(=O)N[C@H](CC(C)C)C(=O)N[C@H](C)C(=O)N1CCC[C@@H]1C(=O)N[C@H](CCCNC(=N)N)C(=O)N[C@@H](C(=O)N[C@H](CC(=O)O)C(=O)N[C@H](Cc1ccc(O)cc1)C(=O)O)[C@H](C)O)[C@H](C)CC` [D-CAP-18, Glrkrlrkfrnkikeklkkigqkiqgllpklaprtdy] (H-G[dL][dR][dK][dR][dL][dR][dK][dF][dR][dN][dK][dI][dK][dE][dK][dL][dK][dK][dI]G[dQ][dK][dI][dQ]G[dL][dL][dP][dK][dL][dA][dP][dR][dT][dD][dY]-OH), the minimal inhibitory concentration (MIC) in series [8] is 2 µg/mL (≈ 0.451 µM). In series [5], this compound came in with an MIC50 of 1 µg/mL (≈ 0.226 µM) and an MIC90 of 2 µg/mL (≈ 0.451 µM). In the series on human erythrocytes, this compound gave a pIC50 of 4.21. In the series on A549 cells, this compound showed a pIC50 of 5.68. Also, in the series with HeLa cells [6], the pIC50 is 5.68. Also, in series [7], the “mice final weight (median ± SD)” value is given as 18.9 ± 0.30 grams; the “dermal responses and body weight loss” value was “no dermal responses, including erythema/oedema, nor body weight loss were observed”; the “indicative signs of acute toxicity” value is given as “None of the 11 indicative signs of acute toxicity were observed”.

Turning to H-INLKALAALAKKIL-CH2CH2NH2, the negative-log IC50 (pIC50) in the series on HeLa cells [1] is 5.30.

A word on the pIC50: it is the negative decadic logarithm of the IC50, by convention in mol/L. One may read the MIC as the lowest concentration found to suppress growth. As a reminder, the MIC50 is an inhibitory concentration at the 50% level, which refers to growth in some studies and to a panel of isolates in others. A lower MIC50 goes with greater potency. What is called MIC90 is the lowest concentration that inhibits either 90% of growth or 90% of the strains tested, depending on the study.
